Experimental data published in patent US7553845B2, “Substituted indolizine 1,2,3,6,7,8 derivatives, FGFs inhibitors, a method for the preparation thereof and pharmaceutical compositions containing said derivatives” (sanofi-aventis, priority 2003, dated 2009).
Where a name gives a salt, the structure may show the parent alone.

What was measured:
[1] = system: circulating platelet level; assay: Effect on thrombopenia induced by carboplatin in mice; assay type: in vivo; conditions: carboplatin 150 mg/kg intraperitoneally, balbC mice, at nadir
Description: Thrombopenia remains a pathology for which there are few effective treatments apart from the transfusion of platelet concentrates and thrombopoietin (Kaushansky, K. New Eng J Med (1998), 339, pp 746-754).
Anticancer chemotherapy constitutes one of the major causes of thrombopenia. One of the agents for chemotherapy, carboplatin, has been widely used to induce thrombopenia in mice and to thus be able to characterize the effect of compounds capable of improving the platelet level such as for example thrombopoietin (Hokom M M et al., Blood (1995), 86, pp 4486-4492).
150 mg/kg of carboplatin were administered intraperitoneally to balbC mice weighing 20 g. A blood sample was collected periodically by retro-orbital puncture and the circulating platelet level is determined by a haematology automated machine (MS9™ from Melet-Schloesing Laboratoires, Cergy-Pontoise, France). Under these conditions, a reversible thrombopenia is observed with a nadir situated 9 to 10 days after the administration of carboplatin (reduction in the circulating platelet level by 50-60%).
The compounds according to the invention or their solvent (a blank—control) are administered orally for 5 days by starting the treatment 7 days before the administration of carboplatin. The experiments were carried out on groups comprising 10-12 mice and the results are expressed as a mean±standard error. […]

Compound | melting point [°C] | reduction in the circulating platelet level [1]
COC(=O)c1c(C)c(C(=O)c2ccc([N+](=O)[O-])c(OC)c2)n2cccc(OCc3ccccc3)c12 | 125 | 
COc1cc(C(=O)c2c(C)c(-c3cccs3)c3ccccn23)ccc1N (as salt: HCl) (hydrate or solvate) | 219 | 
COC(=O)c1ccc2c(OC)c(C)c(C(=O)c3ccc(N)c(OC)c3)n2c1 | 193 | 
CNc1ccn2c(C(=O)c3ccc(N)c(OC)c3)c(C)c(C(=O)O)c2c1 (as salt: Na) (hydrate or solvate) | 209 to 219 | 
COc1cc(C(=O)c2c(C)c(C(=O)O)c3cc(N(C)C)ccn23)ccc1N (as salt: Na) (hydrate or solvate) | 222 to 227 | 
COC(=O)c1c(C)c(C(=O)c2ccc([N+](=O)[O-])c(OC)c2)n2cccc(O)c12 | 150 | 
COC(=O)c1c(C)c(C(=O)c2ccc([N+](=O)[O-])c(OC)c2)n2cc(OCc3ccccc3)ccc12 | 179 | 
COC(=O)c1ccc2c(OC)c(C)c(C(=O)c3ccc([N+](=O)[O-])c(OC)c3)n2c1 | 211 | 
COc1ccc(-c2c(C)c(C(=O)c3ccc([N+](=O)[O-])c(OC)c3)n3cc(C(N)=O)ccc23)cc1 | 267 | 
COc1ccc2c(OC)c(C)c(C(=O)c3ccc(N)c(C(=O)O)c3)n2c1 (as salt: Na) (hydrate or solvate) | 318 | 
COC(=O)c1cc(C(=O)c2c(C)c(-c3cccs3)c3ccccn23)ccc1N | 162 | 
N.N.O=C([O-])C1(C(=O)[O-])CCC1.[Pt+2] [carboplatin] |  | 50-60%
CCOC(=O)COc1cccn2c(C(=O)c3ccc(N)c(OC)c3)c(C)c(C(=O)OC)c12 | 136 | 
